{"source": "patent US20140171424A1", "about": "“HYPERTENSION AND HYPERURICEMIA” (ARDEA BIOSCIENCES, INC., priority 2011, published 2014)", "key": {"[1]": {"target": "T1, OAT4 (Homo sapiens, UniProt Q9NSA0)", "T1 sequence (Q9NSA0 1-550)": "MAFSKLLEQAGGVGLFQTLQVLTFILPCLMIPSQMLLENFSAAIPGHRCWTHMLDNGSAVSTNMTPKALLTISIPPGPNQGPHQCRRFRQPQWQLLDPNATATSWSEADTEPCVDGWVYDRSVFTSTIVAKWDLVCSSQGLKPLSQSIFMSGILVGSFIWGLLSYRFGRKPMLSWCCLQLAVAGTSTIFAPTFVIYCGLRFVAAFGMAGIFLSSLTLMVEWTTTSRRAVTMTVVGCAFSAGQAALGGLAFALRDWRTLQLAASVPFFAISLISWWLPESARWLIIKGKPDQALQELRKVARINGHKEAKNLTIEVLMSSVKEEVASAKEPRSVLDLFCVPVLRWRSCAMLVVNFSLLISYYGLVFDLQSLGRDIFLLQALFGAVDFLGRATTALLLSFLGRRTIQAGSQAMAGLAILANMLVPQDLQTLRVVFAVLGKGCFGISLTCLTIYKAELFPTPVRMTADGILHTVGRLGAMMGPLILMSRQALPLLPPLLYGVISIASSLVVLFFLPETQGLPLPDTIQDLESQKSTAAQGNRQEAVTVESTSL", "assay": "OAT4 transport of 6-carboxyfluorescein (CF) in transfected HEK293/HEK293T cells", "type": "cell-based", "design": "expressed in transfected cells", "settings": "for OAT4 transport activity of 6-carboxyfluorescein: CF 5 μM, drug 100 μM, 5 min incubation, OAT4-expressing HEK293 cells", "experimental": "(§1) For cultured cells, HEK293 cells stably expressing the transporters were produced through transfection of DNA constructs carrying the transporters, antibiotic selection, and clonal selection of clones with high transporter activity. Alternatively, cells transiently expressing the transporters were produced by reverse transfection of HEK293T cells. Transfectants were plated at high density onto poly-L-lysine coated multiwell plates and assayed 1-2 days later. Results were similar for stable and transient expressing cells."}, "[2]": {"target": "T1, OAT4", "assay": "OAT4 urate (14C-uric acid) transport in transfected HEK293/293T cells", "type": "cell-based", "design": "expressed in transfected cells", "settings": "for OAT4 transport activity of 14C-uric acid: UA 100 μM, drug 100 μM, 5 min incubation, OAT4-expressing HEK293 cells", "experimental": "as §1, with “later.” for “later. Results were similar for stable and transient expressing cells.”"}, "[3]": {"target": "T1, OAT4", "settings": "read-out: IC50, inhibition of OAT4 uptake of 3H-estrone sulfate; cited from earlier work"}, "[4]": {"assay": "Clinical phase 2 study in gout patients not adequately responding to allopurinol (sUA <6 mg/dL responders)", "type": "in vivo, human", "settings": "Week 4; Lesinurad added to allopurinol regimen; patients receiving thiazide diuretic", "experimental": "FIG. 10A represents a schematic of a clinical phase 2 study design. The study was a 4-week, double-blind, placebo-controlled clinical trial in 208 gout patients who were not adequately responding to allopurinol with serum urate (sUA)≧6 mg/dL while receiving a stable dose of allopurinol for at least 6 weeks. One of three doses of Lesinurad or matching placebo was added to the patients allopurinol regimen. The primary endpoint of the study was mean reduction in sUA at Week 4, with the key secondary endpoint the proportion of subjects with sUA <6.0 mg/dL at Week 4. A small number of patients in this trial received a thiazide diuretic during the treatment period; their response rates were compared to those patients not receiving concomitant thiazide diuretics and the results presented in FIG. 10B."}, "[5]": {"target": "T2, URAT1 (Homo sapiens, UniProt Q96S37)", "T2 construct": "expressed in transfected cells; host or cells: 293T cells", "T2 sequence (Q96S37 1-553)": "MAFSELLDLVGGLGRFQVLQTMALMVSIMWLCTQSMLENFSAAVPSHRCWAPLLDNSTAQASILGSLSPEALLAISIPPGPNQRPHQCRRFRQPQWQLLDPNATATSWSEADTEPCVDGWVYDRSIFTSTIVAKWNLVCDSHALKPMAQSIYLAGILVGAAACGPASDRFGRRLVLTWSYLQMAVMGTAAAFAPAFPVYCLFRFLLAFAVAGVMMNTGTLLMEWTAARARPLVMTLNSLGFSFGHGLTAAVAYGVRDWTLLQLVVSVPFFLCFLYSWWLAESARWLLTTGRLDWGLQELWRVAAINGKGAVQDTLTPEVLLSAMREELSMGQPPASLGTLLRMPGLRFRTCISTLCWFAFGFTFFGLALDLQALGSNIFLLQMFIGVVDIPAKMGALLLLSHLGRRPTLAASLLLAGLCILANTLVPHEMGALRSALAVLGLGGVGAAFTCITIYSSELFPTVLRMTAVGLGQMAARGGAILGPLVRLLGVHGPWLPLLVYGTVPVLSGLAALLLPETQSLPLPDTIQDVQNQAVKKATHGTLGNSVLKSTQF", "assay": "URAT1 UA transport in 293T cells", "type": "cell-based", "settings": "293T cells expressing URAT1 and/or OAT4; varying concentrations", "experimental": "as §1, with “later.” for “later. Results were similar for stable and transient expressing cells.”"}, "[6]": {"target": "T1, OAT4", "assay": "3H-Estrone sulphate (ES) transport in 293T cells stably expressing OAT4", "type": "cell-based", "design": "expressed in transfected cells", "settings": "1 mM HCTZ, varying concentrations of Lesinurad", "experimental": "as §1"}, "[7]": {"target": "T1, OAT4", "settings": "cited from earlier work; for effect on OAT4 uric acid transport activity: J. Am. Soc. Nephrol. 18:430 and 18:3101, 2007"}}, "note": "“And” between values parts separate entries of the source, which are not always exact repeats. Identical values can stand only once. Like-named read-outs stand apart in the source and are kept apart here.", "data": [{"smiles": "O=c1[nH]c(=O)c2c[nH]nc2[nH]1", "note": "[oxypurinol]", "values": [{"measurement": "OAT4 transport activity of 6-carboxyfluorescein", "setting": "[1]", "value": "do not inhibit OAT4 transport activity"}, {"measurement": "OAT4 transport activity of 14C-uric acid", "setting": "[2]", "value": "do not inhibit OAT4 transport activity"}]}, {"smiles": "Oc1ncnc2[nH]ncc12", "note": "[allopurinol]", "values": [{"measurement": "OAT4 transport activity of 6-carboxyfluorescein", "setting": "[1]", "value": "do not inhibit OAT4 transport activity"}, {"measurement": "OAT4 transport activity of 14C-uric acid", "setting": "[2]", "value": "do not inhibit OAT4 transport activity"}]}, {"smiles": "CCc1oc2cc(O)ccc2c1C(=O)c1cc(Br)c(O)c(Br)c1", "note": "[6-hydroxybenzbromarone]", "values": [{"measurement": "IC50", "setting": "[3]", "value": 3.2, "unit": "µM"}]}, {"smiles": "O=c1[nH]c(=O)c2[nH]c(=O)[nH]c2[nH]1", "note": "[uric acid]", "values": [{"measurement": "EC50", "setting": "[1]; HEK293T cells transiently transfected with OAT4, CF substrate, 0, 0.5, 1, 2 nM cold uric acid, read-out: EC50 of cold uric acid as competitive substrate for OAT4 of CF", "value": "900 µM and ~900 µM"}]}, {"smiles": "O=C(O)CSc1nnc(Br)n1-c1ccc(C2CC2)c2ccccc12", "note": "[Lesinurad, 2-(5-bromo-4-(4-cyclopropylnaphthalen-l-yl)-4H-1,2,4-triazol-3-ylthio)acetic acid]", "values": [{"measurement": "proportion of patients with sUA below 6 mg/dL, patients taking diuretics vs not", "setting": "[4]", "value": "patients receiving diuretics had responded well to Lesinurad"}, {"measurement": "percent inhibition of UA transport, URAT1", "setting": "[5]", "value": "inhibits URAT1 and OAT4 with similar potency"}]}, {"smiles": "CCc1oc2ccccc2c1C(=O)c1cc(Br)c(O)c(Br)c1", "note": "[Benzbromarone]", "values": [{"measurement": "IC50", "setting": "[2]; varying amounts of drug, read-out: OAT4 IC50 (OAT4 urate transport, cpm)", "value": 10, "unit": "µM"}]}, {"smiles": "NS(=O)(=O)c1cc2c(cc1Cl)NCNS2(=O)=O", "note": "[Hydrochlorothiazide, 6-Chloro-1,1-dioxo-3,4-dihydro-2H-1,2,4-benzothiadiazine-7-sulfonamide]", "values": [{"measurement": "effect of HCTZ on Lesinurad-mediated inhibition of OAT4 ES transport", "setting": "[6]", "value": "no effect on Lesinurad-mediated inhibition of OAT4 transporter activity"}, {"measurement": "effect on OAT4 uric acid transport activity", "setting": "[7]", "value": "increase OAT4 uric acid transport activity"}, {"measurement": "increase of OAT4-mediated uric acid uptake", "setting": "[7]; one study", "value": 2.6, "unit": "fold"}]}, {"smiles": "Cc1cccc(Nc2ccncc2S(=O)(=O)NC(=O)NC(C)C)c1", "note": "[torasemide]", "values": [{"measurement": "effect on OAT4 uric acid transport activity", "setting": "[7]", "value": "increase OAT4 uric acid transport activity"}]}]}
